Assay results from ChEMBL document CHEMBL6109124, “Identification of effective anti-osteosarcoma agents via screening of an in-house NQO1-targeted compound library” (Bioorg Med Chem, 2025).
Activity calls are given as the source filed them. The rule behind the calls is not given here.

Experiments:
HOS-TE85 [1] = assay: Induction of apoptosis in human MNNG cells assessed as late apoptotic cells at 10 uM measured after 48 hrs by Alexa Fluor 488 Annexin V/propidium iodide staining based flow cytometry (reference value: 0.51%); format: functional
HOS-TE85 [2] = assay: Cytotoxicity against human MNNG cells assessed as cell growth inhibition at 1 uM measured after 72 hrs by MTT assay relative to control; format: functional; conditions: read-out: GI
HOS-TE85 [3] = assay: Induction of apoptosis in human MNNG cells assessed as viable cells at 5 uM measured after 48 hrs by Alexa Fluor 488 Annexin V/propidium iodide staining based flow cytometry (reference value: 98.8%); format: functional; conditions: read-out: Activity
HOS-TE85 [4] = assay: Induction of apoptosis in human MNNG cells assessed as necrotic cells at 5 uM measured after 48 hrs by Alexa Fluor 488 Annexin V/propidium iodide staining based flow cytometry (reference value: 0.04%); format: functional
HOS-TE85 [5] = assay: Cytotoxicity against human MNNG cells assessed as cell growth inhibition measured after 72 hrs by MTT assay; format: functional, cell-based; conditions: HOS-TE85, 72 h
HOS-TE85 [6] = assay: Antitumor activity against human MNNG cells xenografted in Balb/c mouse assessed as tumor growth inhibition at 45 mg/kg, iv administered every 2 days for 3 weeks and measured daily during compound dosing relative to control; format: functional; conditions: HOS-TE85, 504 h, time 21 day, read-out: TGI
[7] = Toxicity in human MNNG cell xenografted Balb/c mouse assessed as reduction in AST level at 15 to 45 mg/kg, iv administered every 2 days for 3 weeks and measured post last dose; format: organism-based; conditions: in vivo, 504 h, dose 15-45 mg/kg, time 21 day
HOS-TE85 [8] = assay: Induction of apoptosis in human MNNG cells assessed as late apoptotic cells at 2.5 uM measured after 48 hrs by Alexa Fluor 488 Annexin V/propidium iodide staining based flow cytometry (reference value: 0.51%); format: functional
HOS-TE85 [9] = assay: Induction of reactive oxygen species generation in human MNNG cells at 5 to 10 uM measured after 3 hrs in presence of dicoumarol by DCFH-DA probe based fluorescence assay; format: functional, cell-based; conditions: dose 5-10 µM
HOS-TE85 [10] = assay: Induction of apoptosis in human MNNG cells assessed as early apoptotic cells at 5 uM measured after 48 hrs by Alexa Fluor 488 Annexin V/propidium iodide staining based flow cytometry (reference value: 0.69%); format: functional
[11] = Toxicity in human MNNG cell xenografted Balb/c mouse assessed as mortality at 15 to 45 mg/kg, iv administered every 2 days for 3 weeks and measured every other day during compound dosing; format: organism-based; conditions: in vivo, 504 h, dose 15-45 mg/kg, time 21 day
HOS-TE85 [12] = assay: Antitumor activity against iv dosed human MNNG cells xenografted in Balb/c mouse assessed as increase in apoptotic cells administered every 2 days for 3 weeks and measured post last dose by TUNEL staining based assay; format: functional, organism-based; conditions: dose 15-45 mg/kg, time 21.0 day
[13] = Toxicity in human MNNG cell xenografted Balb/c mouse assessed as effect on heart at 15 to 45 mg/kg, iv administered every 2 days for 3 weeks and measured post last dose by H and E staining based microscopy; format: organism-based; conditions: in vivo, 504 h, dose 15-45 mg/kg, time 21 day
HOS-TE85 [14] = assay: Cell cycle arrest in human MNNG cells assessed as accumulation of cells at G2/M phase at 1 uM measured after 24 hrs by propidium iodide staining based flow cytometry (reference value: 39.4%); format: functional
HOS-TE85 [15] = assay: Induction of apoptosis in human MNNG cells assessed as late apoptotic cells at 5 uM measured after 48 hrs by Alexa Fluor 488 Annexin V/propidium iodide staining based flow cytometry (reference value: 0.51%); format: functional
HOS-TE85 [16] = assay: Antitumor activity against human MNNG cells xenografted in Balb/c mouse assessed as reduction in number of live cells in tumor at 15 to 45 mg/kg, iv administered every 2 days for 3 weeks and measured post last dose by H and E staining based microscopy; format: functional, organism-based; conditions: dose 15-45 mg/kg, time 21.0 day
HOS-TE85 [17] = assay: Antitumor activity against human MNNG cells xenografted in Balb/c mouse assessed as tumor growth inhibition at 30 mg/kg, iv administered every 2 days for 3 weeks and measured daily during compound dosing relative to control; format: functional; conditions: HOS-TE85, 504 h, time 21 day, read-out: TGI
HOS-TE85 [18] = assay: Induction of apoptosis in human MNNG cells assessed as necrotic cells at 1 uM measured after 48 hrs by Alexa Fluor 488 Annexin V/propidium iodide staining based flow cytometry (reference value: 0.04%); format: functional
HOS-TE85 [19] = assay: Antitumor activity against iv dosed human MNNG cells xenografted in Balb/c mouse assessed as reduction in tumor cell proliferation administered every 2 days for 3 weeks and measured post last dose by Ki-67 staining based assay; format: functional, organism-based; conditions: dose 15-45 mg/kg, time 21.0 day
[20] = Toxicity in human MNNG cell xenografted Balb/c mouse assessed as effect on liver at 15 to 45 mg/kg, iv administered every 2 days for 3 weeks and measured post last dose by H and E staining based microscopy; format: organism-based; conditions: in vivo, 504 h, dose 15-45 mg/kg, time 21 day
HOS-TE85 [21] = assay: Induction of apoptosis in human MNNG cells assessed as viable cells at 1 uM measured after 48 hrs by Alexa Fluor 488 Annexin V/propidium iodide staining based flow cytometry (reference value: 98.8%); format: functional; conditions: read-out: Activity
HOS-TE85 [22] = assay: Cell cycle arrest in human MNNG cells assessed as accumulation of cells at G2/M phase at 2.5 uM measured after 24 hrs by propidium iodide staining based flow cytometry (reference value: 39.4%); format: functional
HOS-TE85 [23] = assay: Induction of apoptosis in human MNNG cells assessed as early apoptotic cells at 2.5 uM measured after 48 hrs by Alexa Fluor 488 Annexin V/propidium iodide staining based flow cytometry (reference value: 0.69%); format: functional
HOS-TE85 [24] = assay: Induction of apoptosis in human MNNG cells assessed as late apoptotic cells at 1 uM measured after 48 hrs by Alexa Fluor 488 Annexin V/propidium iodide staining based flow cytometry (reference value: 0.51%); format: functional
[25] = Toxicity in human MNNG cell xenografted Balb/c mouse assessed as effect on lung at 15 to 45 mg/kg, iv administered every 2 days for 3 weeks and measured post last dose by H and E staining based microscopy; format: organism-based; conditions: in vivo, 504 h, dose 15-45 mg/kg, time 21 day

Compound: Cc1cc2c(cc1C)-c1oc(CN3CCOCC3)c(C)c1C(=O)C2=O
- Activity (HOS-TE85 [1]): 17.7%
- inhibition of growth at 1 µM (HOS-TE85 [2]): 38.2%
- viability at 5 µM (HOS-TE85 [3]): 69%
- Activity (HOS-TE85 [4]): 0.08%
- IC50 (HOS-TE85 [5]): 1540 nM
- inhibition in vivo at 45 mg/kg (HOS-TE85 [6]): 73.6%
- Activity [7]: Toxic
- Activity (HOS-TE85 [8]): 15.2%
- Activity (HOS-TE85 [9]): inactive
- Activity (HOS-TE85 [10]): 18.1%
- Activity [11]: Non-toxic
- Activity (HOS-TE85 [12]): Dose-dependent-effect
- Activity [13]: Non-toxic
- Activity (HOS-TE85 [14]): 9.2%
- Activity (HOS-TE85 [15]): 12.8%
- Activity (HOS-TE85 [16]): Active
- inhibition in vivo at 30 mg/kg (HOS-TE85 [17]): 63.4%
- Activity (HOS-TE85 [18]): 0.38%
- Activity (HOS-TE85 [19]): Active
- Activity [20]: Non-toxic
- viability at 1 µM (HOS-TE85 [21]): 89.3%
- Activity (HOS-TE85 [22]): 9.2%
- Activity (HOS-TE85 [23]): 10.6%
- Activity (HOS-TE85 [24]): 6.97%
- Activity [25]: Non-toxic
